Measured values from patent publication US11866712B2, “System based on the reassembly of GFP for studying the trans-translational activity and identifying new antibiotics” (UNIVERSITE DE RENNES 1, priority 2018, dated 2024).
“Also recorded” adds a separate entry of the source.

Columns and labels:
[1] = test system: transcription and translation; assay: in vitro translation control: production of fluorescent sfalaGFP from PCR product in PURExpress kit; format: biochemical, Escherichia coli; conditions: KKL-35 10 μM added to the sfalaGFP PCR product; FIG. 3(A)
Method: (§1) In order to evaluate the tmRNA labeling activity in vitro, the present inventors used a reconstituted cell-free protein synthesis system (PURE for Protein Synthesis Using Recombinant Elements) (Shimizu et al., Nature Biotechnol., 2001, 19(8): 751-755). The experiments were carried out using the PURExpress® commercial kit (sold by New England Biolabs) containing all the purified components of Escherichia coli that are required to carry out both the transcription and the translation. In order to convert this kit into an in vitro fluorescent trans-translation system, the inventors added the components required for the trans-translation: tmRNAGFP11, the SmpB protein, and a non-stop DNA sequence encoding the first 10 domains of sfGFP (see Materials and Methods section).
Translation and trans-translation assays. The in vitro translation reactions were carried out according to the recommendations of New England Biolabs. […]
(§2) Analysis by fluorescence. After overnight incubation at 37° C., the reaction volume was adjusted to 125 μL and transferred into a cuvette for analysis by fluorescence using an LS 55 fluorescence spectrometer (Perkin Elmer). The fluorescence intensity at 510 nm of the trans-translated sfalaGFP was determined using an excitation at 485 nm.
The inventors first of all confirmed that there was no fluorescence generated by the components of the PURExpress® kit (see FIG. 3). […]

translation = conditions: known from Ramadoss et al., PNAS USA, 2013; cited from earlier work
trans-translation = assay: in vitro trans-translation assay (PURExpress kit, tmRNAGFP11, SmpB, sfGFP1-10 nonstop; GFP fluorescence); format: biochemical, Escherichia coli; conditions: concentration of 10 μM; FIG. 3(B)
Method: as §1
Translation and trans-translation assays. The in vitro translation reactions were carried out according to the recommendations of New England Biolabs. The in vitro trans-translation assays were carried out in various steps using the PURExpress® protein synthesis kit (New England Biolabs). […]
as §2, with “nm. […]” for “nm.”

## O=C(Nc1nnc(-c2ccc(F)cc2)o1)c1ccc(Cl)cc1 [KKL-35]
[1]
  inhibition of transcription and of translation (anti-transcription and anti-translation activity): No inhibition; also recorded: absence
translation
  anti-translation activity: strong
trans-translation
  activity against the trans-translation: slight activity
